Measurements from US8937091B2 (Japan Science and Technology Agency, priority 2009, dated 2015).

How the values were obtained:
[1] = test system: SOCE (store operated calcium entry) in CHO cells; test: Assay of SOCE (store operated calcium entry)-inhibiting action; format: cell-based, Chinese hamster; settings: CHO cells, thapsigargin; for inhibition at 10 µM / inhibition at 30 µM / inhibition at 100 µM: Cricetulus griseus, CHO, read-out: SOCE level (percentage of inhibition)
Procedure, shortened: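 CHO cells in calcium-free BSS received compound, then 1 μM thapsigargin 2 min later to deplete stores; after 9 min, 2 mM calcium chloride (final) added. Percent inhibition of the rise in intracellular calcium determined at various compound concentrations.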

[2] = test system: IICR (IP3 induced calcium release) in CHO cells; test: Assay of IICR (IP3 induced calcium release)-inhibiting action; format: cell-based, Chinese hamster; settings: CHO cells, 10 μM ATP; for inhibition at 10 µM / inhibition at 30 µM / inhibition at 100 µM: Cricetulus griseus, CHO, read-out: IICR level (percentage of inhibition)
Procedure, shortened: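 Inhibition (%) of the intracellular calcium increase triggered by 10 μM ATP, measured in CHO cells in BSS with calcium. Compound given 1 min after the buffer exchange and 2 min before ATP; values reported per compound concentration.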

| Structure (SMILES) | inhibition at 10 µM ([1]; test compound 10 μmol) [%] | inhibition at 30 µM ([1]; test compound 30 μmol) [%] | inhibition at 100 µM ([1]; test compound 100 μmol) [%] | inhibition at 10 µM ([2]; test compound 10 μmol) [%] | inhibition at 30 µM ([2]; test compound 30 μmol) [%] | inhibition at 100 µM ([2]; test compound 100 μmol) [%] | SOCE level (percentage of inhibition) ([1]; test compound 10 μmol) [%] | SOCE level (percentage of inhibition) ([1]; test compound 30 μmol) [%] | SOCE level (percentage of inhibition) ([1]; test compound 100 μmol) [%] | IICR level (percentage of inhibition) ([2]; test compound 10 μmol) [%] | IICR level (percentage of inhibition) ([2]; test compound 30 μmol) [%] | IICR level (percentage of inhibition) ([2]; test compound 100 μmol) [%] |
| --- | --- | --- | --- | --- | --- | --- | --- | --- | --- | --- | --- | --- |
| O=C(CCN(CCO)Cc1ccccc1)c1ccc(Cl)s1 [Example 268, 2-(N-benzyl-2-hydroxyethyl)aminoethyl-5-chloro-2-thiophenylketone] | 10 | 0 | 10 | 0 | 0 | 70 |  |  |  |  |  |  |
| COC(=O)C(CSSCC(NCCC(=O)c1cnccn1)C(=O)OC)NCCC(=O)c1cnccn1 (stereo not drawn) [Example 402, N,N-bis(2-pyrazinoylethyl)cystinemethylester] | 20 | 40 | 50 | 39 | 12 | 28 |  |  |  |  |  |  |
| CN(CCO)CCC(=O)c1ccco1 [Example 235, 2-(N-2-hydroxyethylmethyl)aminoethyl-2-furylketone] | 0 | 0 | 0 | 0 | 90 | 80 |  |  |  |  |  |  |
| O=C(CCNCCO)c1ccc(Br)s1 [Example 358, 2-(N-hydroxyethyl)aminoethyl-5-bromo-2-thienylketone] |  |  |  |  |  |  | 0 | 4 | 23 | 0 | 0 | 70 |
| CC(C)(C)N(CCO)CCC(=O)c1ccncc1 [Example 30, 2-(N-t-butyl-2-hydroxyethyl)aminoethyl-4-pyridylketone] | 0 | 0 | 0 | 20 | 10 | 10 |  |  |  |  |  |  |
| CC(CN(CCO)Cc1ccccc1)C(=O)c1ccc(F)cc1 (stereo not drawn) [Example 159, 2-(N-hydroxyethylbenzyl)amino-1-methylethyl-4-fluorophenylketone] | 0 | 0 | 20 | 0 | 0 | 20 |  |  |  |  |  |  |
| O=C(CCNCC(O)c1ccccc1)c1ccc(Br)s1 (stereo not drawn) [Example 349, 2-(2-hydroxy-2-phenylethyl)aminoethyl-5-bromo-2-thienylketone] | 46 | 0 | 0 | 20 | 0 | 50 |  |  |  |  |  |  |
| CC(O)CNCCC(=O)c1ccc(Br)s1 (stereo not drawn) [Example 360, 2-(N-2-hydroxypropyl)aminoethyl-5-bromo-2-thienylketone] | 10 | 0 | 20 | 0 | 0 | 70 |  |  |  |  |  |  |
| COc1ccc(C(=O)CCN(CCO)CCO)cc1 [Example 148, 2-(N-bishydroxyethyl)aminoethyl-4-methoxyphenylketone] | 0 | 0 | 0 | 20 | 30 | 90 |  |  |  |  |  |  |
| CCN(CCO)CCC(=O)c1cc(C)sc1C [Example 228, 2-(N-2-hydroxyethylethyl)aminoethyl-2,5-dimethyl-3-thiophenylketone] | 0 | 0 | 20 | 20 | 0 | 20 |  |  |  |  |  |  |
| CCN(CCC(=O)c1cccnc1)Cc1ccccc1 [Example 144, 2-(N-benzylethyl)aminoethyl-3-pyridylketone] | 0 | 0 | 0 | 30 | 40 | 50 |  |  |  |  |  |  |
| Cc1cccc2cc(C(=O)CCN(c3ccccc3)c3ccccc3)ccc12 [Example 80, 2-(N-diphenyl)aminoethyl-5-methyl-2-naphthylketone] | 10 | 30 | 50 | 10 | 50 | 90 |  |  |  |  |  |  |
| CC(C)N(CCO)CCC(=O)c1ccc(Br)s1 [Example 329, 2-(N-hydroxyethylisopropyl)aminoethyl-5-bromo-2-thienylketone] | 20 | 20 | 10 | 0 | 10 | 50 |  |  |  |  |  |  |
| O=C(CCN(c1ccccc1)c1ccccc1)c1cccc2ccccc12 [Example 70, 2-N-diphenylaminoethyl naphthylketone] | 0 | 10 | 20 | 10 | 0 | 40 |  |  |  |  |  |  |
| Cc1ccc(C(=O)CCNC23CC4CC(CC(C4)C2)C3)o1 [Example 190, 2-N-adamantane-aminoethyl-2-methylfurylketone] | 0 | 10 | 50 | 0 | 10 | 50 |  |  |  |  |  |  |
| O=C(CCN(CCO)Cc1ccccc1)c1ccco1 [Example 124, 2-(N-hydroxyethylbenzyl)aminoethyl-2-furylketone] | 0 | 0 | 0 | 20 | 20 | 70 |  |  |  |  |  |  |
| CC(C)N(CCC(=O)c1ccc(Br)s1)C(C)C [Example 395, 2-diisopropylaminoethyl-5-bromo-2-thienylketone] | 20 | 40 | 50 | 14 | 67 | 83 |  |  |  |  |  |  |
| CN(CCC(=O)c1ccco1)Cc1ccccc1 [Example 233, 2-(N-benzylmethyl)aminoethyl-2-furylketone] | 0 | 0 | 10 | 30 | 70 | 80 |  |  |  |  |  |  |
| CC(C)(C)N(CCC(=O)c1ccc(Cl)cc1)Cc1ccccc1 [Example 305, 2-(N-t-butyl-N-benzyl)aminoethyl-4-chlorophenylketone] | 20 | 20 | 60 | 60 | 70 | 50 |  |  |  |  |  |  |
| O=C(CCN(CCO)CCO)c1ccco1 [Example 130, 2-(N-bis-hydroxyethyl)aminoethyl-2-furylketone] | 0 | 0 | 0 |  |  |  |  |  |  | 20 | 20 | 50 |
| O=C(CCN(CCO)CCO)c1ccc2ccccc2c1 [Example 147, 2-(N-bishydroxyethyl)aminoethyl-2-naphthylketone] | 0 | 0 | 0 | 20 | 60 | 90 |  |  |  |  |  |  |
| CC(C)N(CCO)CCC(=O)N1CCCCCC1=O [Example 201, 3-(N-hydroxyethylisopropyl)aminopropionylcaprolactam] | 0 | 0 | 0 | 0 | 0 | 0 |  |  |  |  |  |  |
| O=C(CCN1CCCCC1)c1ccc2c(Cl)cccc2c1 [Example 88, 2-piperidinoethyl-5-chloro-2-naphthylketone] | 0 | 0 | 20 | 10 | 10 | 100 |  |  |  |  |  |  |
| NCCCNCCCCNCCC(=O)c1ccc2ccccc2c1 [Example 119, 2-(N-aminopropylaminobutyl)aminoethyl-2-naphthylketone] | 0 | 0 | 0 | 0 | 0 | 0 |  |  |  |  |  |  |
| Cc1csc(C(=O)CCN(CCO)Cc2ccccc2)c1 [Example 323, 2-(N-benzylhydroxyethyl)aminoethyl-4-methyl-2-thienylketone] | 0 | 0 | 30 | 30 | 50 | 30 |  |  |  |  |  |  |
| N[C@@H](CSSC[C@@H](C(=O)O)N(CCC(=O)c1ccc(Cl)s1)CCC(=O)c1ccc(Cl)s1)C(=O)O [Example 387, N,N-bis(2-(5-chloro-2-thiophenoyl)ethyl)cystine] | 20 | 40 | 50 | 0 | 0 | 70 |  |  |  |  |  |  |
